Test results as given in patent US20250332178A1, “METHODS OF TREATING MYCOBACTERIAL INFECTIONS USING TETRACYCLINE COMPOUNDS” (priority 2018, published 2025).
≈ marks a conversion by molar mass, not a printed value.

System: H37Rv strain of Mycobacterium tuberculosis
Assay: MIC against H37Rv strain
Type: cell-based
Details: Mycobacterium tuberculosis, H37RV
Procedure: The purpose of this study was to test activity of selected tetracycline compounds against the H37Rv strain of Mycobacterium tuberculosis. Minimum inhibitory concentrations (MIC) of different tetracycline compounds against H37Rv strain were determined and are shown in Table 8.

SMILES | MIC [µg/mL]
CN(C)c1cc(CNC(=O)Oc2ccccc2)c(O)c2c1C[C@H]1C[C@H]3[C@H](N(C)C)C(O)=C(C(N)=O)C(=O)[C@@]3(O)C(O)=C1C2=O [Compound 10] | > 32
CN(C)c1cc(CNC(CF)CF)c(O)c2c1C[C@H]1C[C@H]3[C@H](N(C)C)C(O)=C(C(N)=O)C(=O)[C@@]3(O)C(O)=C1C2=O [Compound 79] | 32 (≈ 56.7 µM)
CN(C)c1cc(CNC(=O)Oc2ccc(F)cc2)c(O)c2c1C[C@H]1C[C@H]3[C@H](N(C)C)C(O)=C(C(N)=O)C(=O)[C@@]3(O)C(O)=C1C2=O [Compound 23] | 32 (≈ 51.2 µM)

Same assay, conditions: Mycobacterium tuberculosis, H37RV; read-out: MIC

SMILES | MIC [µg/mL]
CN(C)Cc1cc(N(C)C)c2c(c1O)C(=O)C1=C(O)[C@]3(O)C(=O)C(C(N)=O)=C(O)[C@@H](N(C)C)[C@@H]3C[C@@H]1C2 [Compound 40] | 32 (≈ 62.2 µM)
CCCCCCOC(=O)NCc1cc(N(C)C)c2c(c1O)C(=O)C1=C(O)[C@]3(O)C(=O)C(C(N)=O)=C(O)[C@@H](N(C)C)[C@@H]3C[C@@H]1C2 [Compound 18] | > 32
CC(CCO)NCc1cc(N(C)C)c2c(c1O)C(=O)C1=C(O)[C@]3(O)C(=O)C(C(N)=O)=C(O)[C@H](N(C)C)[C@@H]3C[C@@H]1C2 (some centres unmarked) [Compound 44] | > 32
CN(C)[C@@H]1C(O)=C(C(N)=O)C(=O)[C@@]2(O)C(O)=C3C(=O)c4c(ccc(CNCC(C)(C)C)c4O)C[C@H]3C[C@@H]12 [Compound 68] | > 32
C=CCCOC(=O)NCc1cc(N(C)C)c2c(c1O)C(=O)C1=C(O)[C@]3(O)C(=O)C(C(N)=O)=C(O)[C@@H](N(C)C)[C@@H]3C[C@@H]1C2 [Compound 9] | > 32
CN(C)c1cc(CNCc2cc[n+]([O-])cc2)c(O)c2c1C[C@H]1C[C@H]3[C@H](N(C)C)C(O)=C(C(N)=O)C(=O)[C@@]3(O)C(O)=C1C2=O [Compound 54] | 32 (≈ 53.9 µM)
CC(C)NCc1cc(N(C)C)c2c(c1O)C(=O)C1=C(O)[C@]3(O)C(=O)C(C(N)=O)=C(O)[C@H](N(C)C)[C@@H]3C[C@@H]1C2 [Compound 39] | > 32
CCNCC(=O)NCc1cc(N(C)C)c2c(c1O)C(=O)C1=C(O)[C@]3(O)C(=O)C(C(N)=O)=C(O)[C@H](N(C)C)[C@@H]3C[C@@H]1C2 [Compound 46] | 32 (≈ 56 µM)
CCCCOC(=O)NCc1cc(N(C)C)c2c(c1O)C(=O)C1=C(O)[C@]3(O)C(=O)C(C(N)=O)=C(O)[C@H](N(C)C)[C@@H]3C[C@@H]1C2 [Compound 12] | > 32
CN(C)c1cc(CNCC2CCSCC2)c(O)c2c1C[C@H]1C[C@H]3C(N(C)C)C(O)=C(C(N)=O)C(=O)[C@@]3(O)C(O)=C1C2=O (some centres unmarked) [Compound 50] | > 32
CCC(C)CNCc1cc(N(C)C)c2c(c1O)C(=O)C1=C(O)[C@]3(O)C(=O)C(C(N)=O)=C(O)[C@@H](N(C)C)[C@@H]3C[C@@H]1C2 (some centres unmarked) [Compound 53] | 16 (≈ 28.7 µM)
CN(C)c1cc(CNCCc2ccccc2)c(O)c2c1C[C@H]1C[C@H]3C(N(C)C)C(O)=C(C(N)=O)C(=O)[C@@]3(O)C(O)=C1C2=O (some centres unmarked) [Compound 5] | > 32
CC(C)CNCc1ccc2c(c1O)C(=O)C1=C(O)[C@]3(O)C(=O)C(C(N)=O)=C(O)[C@@H](N(C)C)[C@@H]3[C@@H](O)[C@@H]1[C@H]2C [Compound 34] | 32 (≈ 60.4 µM)
CN(C)c1cc(CNCC(C)(C)C)c(O)c2c1C[C@H]1C[C@H]3[C@H](N(C)C)C(O)=C(C(N)=O)C(=O)[C@@]3(O)C(O)=C1C2=O [Compound 17] | 32 (≈ 57.5 µM)
CN(C)c1cc(CNC(=O)[C@@H]2CCCN2C)c(O)c2c1C[C@H]1C[C@H]3[C@@H](N(C)C)C(O)=C(C(N)=O)C(=O)[C@@]3(O)C(O)=C1C2=O [Compound 71] | 16 (≈ 26.8 µM)
Cc1noc(C)c1S(=O)(=O)NCc1cc(N(C)C)c2c(c1O)C(=O)C1=C(O)[C@]3(O)C(=O)C(C(N)=O)=C(O)[C@@H](N(C)C)[C@@H]3C[C@@H]1C2 [Compound 67] | > 32
C[C@H]1c2ccc(CNCCc3ccccc3)c(O)c2C(=O)C2=C(O)[C@]3(O)C(=O)C(C(N)=O)=C(O)[C@@H](N(C)C)[C@@H]3[C@@H](O)[C@@H]21 [Compound 35] | > 32
